Results as given in US11602570B2, “Compositions and systems for renal function determination” (MediBeacon Inc., priority 2017, dated 2023).

Experiments:
[1] = Clinical study: plasma pharmacokinetics of MB-102 given intravenously to human patients; assay type: in vivo
Experimental: (§1) In a clinical study, 60 human patients were administered MB-102 ((2R,2′R)-2,2′-((3,6-diaminopyrazine-2,5-dicarbonyl)bis(azanediyl))bis(3-hydroxypropanoic acid)) prepared in Example 12) intravenously. Blood and urine were collected in addition to the methods and techniques disclosed herein. Standard pharmacokinetic data was collected and comparison was made between the methods and techniques disclosed herein to Omnipaque® (iohexol), a known contrast agent used for GFR determination.
Shown in FIGS. 3A to 3D are data collected from the 60 human patients tested with MB-102. Plasma pharmacokinetic data was collected and analyzed using methods known in the art and compared to the data measured using the methods and techniques disclosed herein.
FIGS. 3A to 3D illustrate a two compartment pharmacokinetic model for the elimination of MB-102. The model is consistent for patients regardless of their GFR values. FIG. 3A is for patients having normal kidney function having a measured GFR (mGFR) of 120 mL/min. FIG. 3B is for patients having a mGFR of 81 mL/min. FIG. 3C is for patients having a mGFR of 28 mL/min. FIG. 3D is for patients having a mGFR of 25 mL/min. The first compartment in the two compartment model is the vascular to tissue equilibrium while the second compartment illustrates renal excretion only. On average, the time for equilibration is about one hour, and is subject dependent.
Shown in FIG. 6 is the plasma concentration half-life of MB-102 for patients having either normal kidney function, stage 1 renal impairment, stage 2 renal impairment, stage 3 renal impairment, or stage 4 renal impairment.

[2] = Clinical study: 12 hour urine collection, amount recovered and degree of secondary metabolism; assay type: in vivo, human
Experimental: as §1
As part of the clinical 1 study for MB-102, urine was collected from patients for 12 hours to determine the amount recovered and degree of secondary metabolism. […] For patients having normal, stage 1 and stage 2 renal function, 12 hour collection time was sufficient for greater than 99% recovery of MB-102. In view of the pharmacokinetic data and the plasma half-life determination, less than complete collection is readily understood for patients having more serious renal function impairment.

[3] = Stability testing of MB-102, HPLC evaluation; assay type: physicochemical; settings: 25° C. and 60% relative humidity
Experimental: Samples of MB-102 were prepared and stored at 25° C. and 60% relative humidity for 24 months. HPLC evaluation of each sample was performed at various time points to assess the stability of the samples.

time for equilibration (vascular to tissue equilibrium) ([1]; human patients, intravenous, on average, subject dependent): about one
average plasma half-life ([1]; normal renal function group): two
plasma half-life ([1]; stage 3 renal impairment): 4 h
MB-102 recovered from urine ([2]; patients having a mGFR value below 60, 12 hours, likewise unmetabolized): a lower percentage was recovered
MB-102 recovered unmetabolized from urine ([2]; patients having an eGFR greater than 60, after 12 hours): greater than 99%
Purity (HPLC) ([3]; 0 months): >99%
Purity (HPLC) ([3]; 6 months): >99%
Purity (HPLC) ([3]; 12 months): 98.9%
Purity (HPLC) ([3]; 18 months): 98.3%
Purity (HPLC) ([3]; 24 months): 97.8%
SMILES: Nc1nc(C(=O)N[C@H](CO)C(=O)O)c(N)nc1C(=O)N[C@H](CO)C(=O)O [MB-102, (2R,2′R)-2,2′-((3,6-diaminopyrazine-2,5-dicarbonyl)bis(azanediyl))bis(3-hydroxypropanoic acid)]
